# Data published in patent US20240399001A1, “RA[…] TH[…] TO FIBROBLAST ACTIVATION PROTEIN (FAP)” (BLUE EARTH D[…], priority 2021, published 2024).
# Key:
# FAP = target: T1, FAP (Homo sapiens, UniProt Q12884); experiment: In vitro FAP binding affinity, Grating-Coupled Interferometry (GCI), waveRAPID kinetics assay; settings: immobilized biotinylated FAP; 1×PBS pH 7.4, 1 mM DTT, 0.005% Tween, 2% DMSO; non-radiolabelled compounds
# T1 construct: biotin (biotinylated)
# T1 sequence (Q12884 1-760): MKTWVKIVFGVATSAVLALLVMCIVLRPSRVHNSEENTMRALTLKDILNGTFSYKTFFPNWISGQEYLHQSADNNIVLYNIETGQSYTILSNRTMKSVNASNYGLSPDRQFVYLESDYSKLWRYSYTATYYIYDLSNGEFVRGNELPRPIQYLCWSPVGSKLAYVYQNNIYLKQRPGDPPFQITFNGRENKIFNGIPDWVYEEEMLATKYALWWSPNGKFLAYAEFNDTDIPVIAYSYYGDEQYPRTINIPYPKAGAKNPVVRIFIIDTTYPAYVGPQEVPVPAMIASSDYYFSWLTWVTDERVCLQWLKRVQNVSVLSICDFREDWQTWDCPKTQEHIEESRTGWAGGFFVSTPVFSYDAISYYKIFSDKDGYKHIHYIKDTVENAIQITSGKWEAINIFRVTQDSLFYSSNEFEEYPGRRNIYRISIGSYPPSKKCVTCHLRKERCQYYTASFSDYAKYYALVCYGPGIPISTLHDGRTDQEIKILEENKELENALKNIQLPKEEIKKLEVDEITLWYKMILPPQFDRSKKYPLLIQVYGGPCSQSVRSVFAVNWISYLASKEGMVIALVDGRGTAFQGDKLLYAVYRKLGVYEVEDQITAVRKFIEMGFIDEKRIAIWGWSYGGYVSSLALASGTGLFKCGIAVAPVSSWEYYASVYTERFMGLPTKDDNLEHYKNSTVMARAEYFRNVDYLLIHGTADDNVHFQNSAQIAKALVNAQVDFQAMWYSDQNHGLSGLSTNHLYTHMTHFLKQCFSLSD
# Method: The binding affinity of non-radiolabelled compounds Example 2 (Ga—(S,R,R)—SiFA-FAP-1) and Example 1 ((S,R,R)—SiFA-FAP-1) was assessed in vitro using Grating-Coupled Interferometry (GCI) and waveRAPID kinetics assay (Kartal Ö et al. SLAS Discov. 2021 September; 26(8)-995-1003).
# FAP was immobilized on a streptavidin sensor chap in order to assess target binding of compounds. Briefly, the streptavidin chip was conditioned with borate buffer and activated with EDC-NHS solution. Immobilization was achieved via amine coupling to the surface on an amine reactive sensor chip (NeutrAvidin sensor chip) and unused amine reactive groups were deactivated with ethanolamine. FAP was immobilized via via NeutrAvidin capturing of the biotinylated FAP and remaining NeutrAvidin quenched with biocytin. Binding of the compounds to immobilized FAP was assessed using the waveRAPID kinetics assay, using different concentrations of each compound in 1×PBS pH 7.4, 1 mM DTT, 0.005% Tween, 2% DMSO. Binding affinity to FAP was reported as KD.
# [1] = test system: subcutaneous U87-MG tumour; experiment: Biodistribution by γ-counting of excised tissues of U87-MG tumour-bearing mice; format: in vivo; settings: γ-counting 80 minutes post-radiotracer injection; for Biodistribution, Blood / Biodistribution, Bone / Biodistribution, Heart / Biodistribution, Intestine / Biodistribution, Kidneys / Biodistribution, Liver / Biodistribution, Lung / Biodistribution, Muscle / Biodistribution, Pancreas / Biodistribution, Spleen: U87-MG tumor-bearing mice
# Method: (§1) The human glioblastoma U87-MG cell line was purchased from ATCC. Cells were cultured in EMEM (supplemented with 2 mM L-glutamine, with 10% fetal bovine serum and 0.1 mM NEAA) at 37° C. in a humidified atmosphere (5% CO2, 95% air).
# (§2) All animal experiments were conducted in accordance with the Federation for Laboratory Animal Science Associations guidelines. Healthy female Swiss nude (CrI:NU(Ico)-Foxn1nu) mice (5-6 weeks old) were purchased from Charles River. Mice were irradiated 24-72 hours prior to tumour cell inoculation (whole-body irradiation, 2 Gy/mouse), and U87-MG cells (1×10^7 in 200 μL of RPMI 1640) were then injected subcutaneously into the right shoulder flank.
# (§3) Female Swiss nude (CrI:NU(Ico)-Foxn1nu) mice each bearing a subcutaneous U87-MG tumour in the right flank (n=4) were administered with radiolabelled compound of Example 11 ([^18F]—Ga—(S,R,R)—SiFA-FAP-1) (8±1.5 MBq, 100 μL per mouse) intravenously into the tail vein (approximately 3 weeks post inoculation of U87-MG cells). Static PET imaging was performed 60 minutes post-radiotracer administration under anaesthesia (2% isoflurane) using a small animal PET scanner (eXploreVISTA, GE) (n=3). Whole-body PET acquisitions were performed over two bed positions for 20 minutes. Regions of interest were generated, and radiotracer uptake in tissues was calculated as % injected dose per region of interest volume (% ID/cm^3). Immediately post-PET imaging, mice (n=4) were sacrificed and select tissues (blood, tumor, heart, lung, liver, kidneys, spleen, pancreas, intestine, bone, muscle, tail) were harvested and weighed. Radioactivity in the collected samples was determined using γ-counting (Packard). Radiotracer uptake was calculated as % injected dose per gram of tissue (% ID/g).
# [2] = test system: subcutaneous U87-MG tumour; experiment: In vivo PET imaging uptake in U87-MG tumour-bearing mice; settings: 60 minutes post-radiotracer administration; for PET imaging uptake, Muscle: U87-MG tumor-bearing mice; for PET imaging uptake, Muscle / PET imaging uptake, Tumor: i.v.
# Method: as §1, §2, §3
structure (smiles),measurement,setting,value
"CC(C)(C)[Si](F)(c1ccc(C(=O)NC[C@@H](NC(=O)CC[C@H](C(=O)O)N2CCN(CC(=O)O)CCN(CC(=O)O)CCN(CC(=O)O)CC2)C(=O)NCCCOc2ccc3nccc(C(=O)NCC(=O)N4CCC[C@H]4C#N)c3c2)cc1)C(C)(C)C [Example 1, 2,2′,2″-(10-((R)-1-Carboxy-4-(((R)-1-((3-((4-((2-((S)-2-cyanopyrrolidin-1-yl)-2-oxoethyl)carbamoyl)quinolin-6-yl)oxy)propyl)amino)-3-(4-(di-tert-butylfluorosilyl)benzamido)-1-oxopropan-2-yl)amino)-4-oxobutyl)-1,4,7,10-tetraazacyclododecane-1,4,7-triyl) triacetic acid]",Kd,FAP,0.031 nM
CC(C)(C)[Si]([18F])(c1ccc(C(=O)NC[C@@H](NC(=O)CC[C@H](C(=O)O)N2CCN(CC(=O)O)CCN(CC(=O)O)CCN(CC(=O)O)CC2)C(=O)NCCCOc2ccc3nccc(C(=O)NCC(=O)N4CCC[C@H]4C#N)c3c2)cc1)C(C)(C)C [Example 11],"Biodistribution, Blood",[1]; Mean ± SD (n=4),2.6 ± 1.1 % ID/g
same,"Biodistribution, Bone",[1]; Mean ± SD (n=4),5.1 ± 1.3 % ID/g
same,"Biodistribution, Heart",[1]; Mean ± SD (n=4),1.1 ± 0.2 % ID/g
same,"Biodistribution, Intestine",[1]; Mean ± SD (n=4),7.3 ± 2.4 % ID/g
same,"Biodistribution, Kidneys",[1]; Mean ± SD (n=4),3.0 ± 1.2 % ID/g
same,"Biodistribution, Liver",[1]; Mean ± SD (n=4),3.3 ± 0.8 % ID/g
same,"Biodistribution, Lung",[1]; Mean ± SD (n=4),1.7 ± 0.1 % ID/g
same,"Biodistribution, Muscle",[1]; Mean ± SD (n=4),0.6 ± 0.1 % ID/g
same,"Biodistribution, Pancreas",[1]; Mean ± SD (n=4),0.6 ± 0.1 % ID/g
same,"Biodistribution, Spleen",[1]; Mean ± SD (n=4),0.7 ± 0.1 % ID/g
same,"Biodistribution, Blood",[1]; Mouse 1,2.0 % ID/g
same,"Biodistribution, Bone",[1]; Mouse 1,5.7 % ID/g
same,"Biodistribution, Heart",[1]; Mouse 1,1.1 % ID/g
same,"Biodistribution, Intestine",[1]; Mouse 1,5.4 % ID/g
same,"Biodistribution, Kidneys",[1]; Mouse 1,3.8 % ID/g
same,"Biodistribution, Liver",[1]; Mouse 1,3.8 % ID/g
same,"Biodistribution, Lung",[1]; Mouse 1,1.6 % ID/g
same,"Biodistribution, Muscle",[1]; Mouse 1,0.5 % ID/g
same,"Biodistribution, Pancreas",[1]; Mouse 1,0.7 % ID/g
same,"Biodistribution, Spleen",[1]; Mouse 1,0.7 % ID/g
same,"Biodistribution, Blood",[1]; Mouse 2,1.3 % ID/g
same,"Biodistribution, Bone",[1]; Mouse 2,6.6 % ID/g
same,"Biodistribution, Heart",[1]; Mouse 2,0.9 % ID/g
same,"Biodistribution, Intestine",[1]; Mouse 2,5.3 % ID/g
same,"Biodistribution, Kidneys",[1]; Mouse 2,1.6 % ID/g
same,"Biodistribution, Liver",[1]; Mouse 2,2.5 % ID/g
same,"Biodistribution, Lung",[1]; Mouse 2,1.8 % ID/g
same,"Biodistribution, Muscle",[1]; Mouse 2,0.8 % ID/g
same,"Biodistribution, Pancreas",[1]; Mouse 2,0.6 % ID/g
same,"Biodistribution, Spleen",[1]; Mouse 2,0.6 % ID/g
same,"Biodistribution, Blood",[1]; Mouse 3,3.5 % ID/g
same,"Biodistribution, Bone",[1]; Mouse 3,4.0 % ID/g
same,"Biodistribution, Heart",[1]; Mouse 3,1.3 % ID/g
same,"Biodistribution, Intestine",[1]; Mouse 3,8.6 % ID/g
same,"Biodistribution, Kidneys",[1]; Mouse 3,4.2 % ID/g
same,"Biodistribution, Liver",[1]; Mouse 3,2.7 % ID/g
same,"Biodistribution, Lung",[1]; Mouse 3,1.7 % ID/g
same,"Biodistribution, Muscle",[1]; Mouse 3,0.5 % ID/g
same,"Biodistribution, Pancreas",[1]; Mouse 3,0.6 % ID/g
same,"Biodistribution, Spleen",[1]; Mouse 3,0.7 % ID/g
same,"Biodistribution, Blood",[1]; Mouse 4,3.5 % ID/g
same,"Biodistribution, Bone",[1]; Mouse 4,4.2 % ID/g
same,"Biodistribution, Heart",[1]; Mouse 4,1.2 % ID/g
same,"Biodistribution, Intestine",[1]; Mouse 4,10.1 % ID/g
same,"Biodistribution, Kidneys",[1]; Mouse 4,2.4 % ID/g
same,"Biodistribution, Liver",[1]; Mouse 4,4.2 % ID/g
same,"Biodistribution, Lung",[1]; Mouse 4,1.8 % ID/g
same,"Biodistribution, Muscle",[1]; Mouse 4,0.6 % ID/g
same,"Biodistribution, Pancreas",[1]; Mouse 4,0.5 % ID/g
same,"Biodistribution, Spleen",[1]; Mouse 4,0.7 % ID/g
same,radiotracer uptake higher in tumor compared to muscle (biodistribution analyses),[1],8 fold
same,Biodistribution - Tumor to muscle ratio (T:M),[1]; Mean ± SD (n=4),8.3 ± 2.9
same,"Biodistribution, Tumor",[1]; Mean ± SD (n=4),4.8 ± 1.1 % ID/g
same,Biodistribution - Tumor to muscle ratio (T:M),[1]; Mouse 1,11.0
same,"Biodistribution, Tumor",[1]; Mouse 1,5.8 % ID/g
same,Biodistribution - Tumor to muscle ratio (T:M),[1]; Mouse 2,5.9
same,"Biodistribution, Tumor",[1]; Mouse 2,4.8 % ID/g
same,Biodistribution - Tumor to muscle ratio (T:M),[1]; Mouse 3,10.6
same,"Biodistribution, Tumor",[1]; Mouse 3,5.2 % ID/g
same,Biodistribution - Tumor to muscle ratio (T:M),[1]; Mouse 4,5.7
same,"Biodistribution, Tumor",[1]; Mouse 4,3.2 % ID/g
same,PET imaging Tumor:Muscle ratio,[2]; Mean ± SD (n=3),4.4 ± 0.8
same,PET imaging Tumor:Muscle ratio,[2]; Mouse 1,4.6
same,PET imaging Tumor:Muscle ratio,[2]; Mouse 2,5
same,PET imaging Tumor:Muscle ratio,[2]; Mouse 3,3.5
same,"PET imaging uptake, Muscle",[2]; Mean ± SD (n=3),1.0 ± 0.1 % ID/cm^3
same,"PET imaging uptake, Muscle",[2]; Mouse 1,1 % ID/cm^3
same,"PET imaging uptake, Muscle",[2]; Mouse 2,0.8 % ID/cm^3
same,"PET imaging uptake, Muscle",[2]; Mouse 3,1.1 % ID/cm^3
same,"PET imaging uptake, Tumor",[2]; Mean ± SD (n=3),4.1 ± 0.3 % ID/cm^3
same,"PET imaging uptake, Tumor",[2]; Mouse 1,4.4 % ID/cm^3
same,"PET imaging uptake, Tumor",[2]; Mouse 2,4.2 % ID/cm^3
same,"PET imaging uptake, Tumor",[2]; Mouse 3,3.8 % ID/cm^3
